In paper PMC8296985, “A Covalent Calmodulin Inhibitor as a Tool to Study Cellular Mechanisms of K-Ras-Driven Stemness” (Frontiers in Cell and Developmental Biology, 2021):

Columns and labels:
[1] = biological target: T1, K-RasG12V/CaM (Homo sapiens, UniProt P0DP23); assay: Rluc8-K-RasG12V/GFP2-CaM interaction BRET in HEK293-EBNA cells; type: cell-based; settings: calmidazolium 20 μM, prostratin 20 μM, OphA 5 μM
T1 construct: expressed in transfected cells; host or cells: HEK293-EBNA
Method: (§1) BRET assays were essentially performed as described by others ([Lavoie et al., 2013]; [Bery et al., 2018]). About 100,00–150,000 HEK293-EBNA ([Meissner et al., 2001]) cells were seeded per well of a 12-well plate in 1 ml of DMEM containing 10% FBS and 2 mM L-glutamine and were grown for 24 h. Next day, Rluc8-tagged donor and GFP2-tagged acceptor constructs were transfected into cells using a jetPRIME transfection reagent (cat. no. 114-75, Polyplus). Each well was transfected with about 1 μg of plasmid DNA using 3 μl of the jetPRIME reagent. For BRET donor saturation titration experiments, the concentration of donor plasmid (25 ng) was kept constant, and the concentration of acceptor plasmid was increased from 0 to 500 ng for RasG12V BRET pairs and 0–1,000 ng for K-Ras/CaM BRET pairs. The empty pcDNA3.1(-) plasmid was used to top-up the total DNA load per transfection. After 24 h of transfection, cells were treated with compounds or vehicle control (DMSO 0.2% v/v in a growth medium) at the specified concentration for 24 h or the stipulated time period in case of the time-course experiments. The cells from one well of a 12-well plate were collected, washed, and re-plated in PBS (cat. no. 14190-094, Gibco, Thermo Fisher Scientific) on flat bottom, white 96-well plates (cat. no. 236108, Nunc, Thermo Fisher Scientific) as four technical replicates containing 90 μl of cell suspension per well. Then fluorescence intensity followed by BRET readings were carried out on a Clariostar (BMG Labtech) plate reader at 25°C. The fluorescence intensity (RFU) of GFP2 was measured with excitation at 405 ± 10 nm and emission 515 ± 10 nm; it is proportional to the acceptor concentration [acceptor]. BRET readings were taken well by well by adding 10 μl of 100 μM coelenterazine 400a (cat. no. C-320, GoldBio), the Rluc8 substrate to each well (final concentration of 10 μM) using the injector present in the plate reader. Luminescence emission intensities were simultaneously recorded at 410 ± 40 nm (RLU, proportional to [donor]) and 515 ± 15 nm (BRET signal).
(§2) The raw BRET ratio was calculated as the BRET signal measured at 515 nm divided by the emission signal measured at 410 nm (RLU). The BRET ratio was obtained by subtracting the raw BRET ratio by a background BRET signal measured for cells expressing only the donor ([Bacart et al., 2008]) as indicated in the formula below:
(§3) For BRET donor saturation titration experiments, the BRET ratio was plotted against the [acceptor]/[donor] ratio. Technical repeat data points were averaged, and data points from all biological repeats were collected into one graph for subsequent fitting. The BRET ratio vs. relative expression data were fitted using a binding saturation equation in the Prism (GraphPad) software to obtain BRETmax and BRET50 using the equation y=BRETmax×x/BRET50+x , where x is the relative expression and y is the BRET ratio. BRETmax represents the maximum saturation BRET signal and depends on the structural parameters (distance, orientation) of the BRET complex. BRET50 corresponds to the ratio of the acceptor construct over the donor construct required to attain 50% of the maximum BRET signal and is a measure of the effective relative affinity between the interacting BRET pair ([Marullo and Bouvier, 2007]).

[2] = test system: NCI-H358, MIA PaCa-2, MDA-MB-231 and A375 3D spheroids; assay: 3D spheroid growth benchmarking, DSS3, alamarBlue; type: cell-based; settings: spheroids grown 72 h then treated 72 h
Method: 3D spheroid formation assays were performed in 96-well low-attachment, suspension culture plates (cat. no. 655185, Cellstar, Greiner Bio-One) under serum-free condition. About 1,000 (MDA-MB-231, NCI-H358, and MIA PaCa-2) or 2,500 (Hs 578T) cells per well were seeded in 50 μl of either an RPMI medium (cat. no. 52400-025, Gibco, Thermo Fisher Scientific) (MDA-MB-231, A375, and NCI-H358) or DMEM (cat. no. 41965-039, Gibco, Thermo Fisher Scientific) (Hs 578T and MIA PaCa-2), containing 0.5% MethoCult (cat. no. SF H4636, Stemcell technologies), 1x B27 (cat. no. 17504044, Gibco, Thermo Fisher Scientific), 25 ng/ml EGF (cat. no. E9644, Sigma-Aldrich), and 25 ng/ml FGF (cat. no. RP-8628, Thermo Fisher Scientific). Cells were cultured for 3 days and then treated with compounds or vehicle control (DMSO 0.1% v/v in growth medium) for another 3 days. The cells were supplemented with a fresh growth medium on the third day together with the drug treatment. For knockdown experiments, cells were seeded in 12-well plates and treated with either 50 nM scrambled siRNA (cat. no. 1022076, QIAGEN) or indicated concentrations of siRNAs. Next day, cells were collected by trypsinization and re-plated into 96-well plates for 3D spheroid suspension culture.
Spheroid formation efficiency was analyzed by an alamarBlue assay reagent (cat. no. DAL1100, Thermo Fisher Scientific). A 10% final volume of the alamarBlue reagent was added to each well of the plate and incubated for 4 h at 37°C. Then the fluorescence intensity was measured using the FLUOstar OPTIMA plate reader (BMG Labtech, Germany) with an excitation wavelength of 560 ± 5 nm and an emission wavelength of 590 ± 5 nm.
To quantitatively profile the drug sensitivity with a more robust parameter than the IC50 or EC50 values, the drug sensitivity score (DSS) analysis was employed. DSS values are essentially normalized area under the curve (AUC) measures of dose-response inhibition data ([Yadav et al., 2014]). Drug response data files (in Excel) ready for online analysis were prepared according to the example file obtained from the DSS pipeline website, called Breeze^1 ([Potdar et al., 2020]). Either raw fluorescence intensity measurements or normalized % inhibition data (for BRET assay analysis) were uploaded.
DSS3 was employed to emphasize drugs that obtain their response area over a relatively wide dose window, as compared to drugs that show increased response only at the higher end of the concentration range. After logistic fitting of the dose-response inhibition data, the area under the curve (AUC) was determined as the exact solution. A 10% minimal activity threshold (t) was set. The maximum (Cmax) and minimum (Cmin) concentrations were used for screening of the inhibitors, with Cmax = x2 and x1 concentration with minimal activity t.

[3] = test system: K-RasG12V; assay: K-RasG12V nanoclustering-BRET assay in HEK293-EBNA cells; type: cell-based; settings: mevastatin 10 μM; for K-Ras selective reduction of nanoclustering-BRET (K-Ras vs H-Ras): 24 h, calmidazolium 20 μM, OphA 2.5 μM, prostratin 10 μM, benzazulenones 20 μM
Method: as §1, §2, §3
When applying the DSS analysis to nanoclustering-BRET data, we used mevastatin (10 μM) to obtain the asymptote parameter (a) for the maximal inhibition effect, as it prevents the prenylation of Ras proteins, their plasma membrane trafficking, and therefore nanoclustering. Otherwise, normalized BRET ratio data were converted to % inhibition and then subsequently uploaded onto the Breeze site (see text footnote 1).

[4] = biological target: CaM; design: method as in Manoharan et al., 2019; settings: ref Manoharan et al., 2019; cited from earlier work
[5] = test system: HeLa cells; assay: Centrosome number / multipolar phenotype in synchronized HeLa cells expressing mCherry-CaM; type: cell-based; settings: 2 h; calmidazolium 20 μM, 1 50 μM, with MG132 10 μM
Method: To evaluate the effect of compounds on centrosome numbers during mitosis, HeLa cells were seeded in 6-well plates onto sterile coverslips and cotransfected with 0.5 μg of pmCherry-CaM and 1.5 μg pEGFP-Centrin1 plasmids using 4 μl of jetPRIME. Twenty-four hours after the transfection, cells were synchronized with 60 ng/ml of nocodazole for 16 h. After the removal of nocodazole, the cells were treated with the […] MG132 (10 μM) to block the cells in metaphase and either calmidazolium (20 μM), 1 (50 μM), or DMSO (0.5%) for 2 h. Cells were then fixed with 4% paraformaldehyde in PBS for 10 min at ambient temperature. After washing with PBS-Tween 0.05%, DNA was stained with a 1 μg/ml solution of DAPI diluted in PBS for 10 min. Coverslips were mounted on glass slides using Vectashield, and images were captured on a spinning disk confocal microscope. Images were analyzed with the ImageJ software, and the number of transfected mitotic cells with multipolar and normal bipolar phenotypes was counted (between 35 and 70 cells per test condition). The percentage multipolar vs. bipolar cells was computed to generate the plot using the Prism software.

Row | SMILES | effect on Rluc8-K-RasG12V/GFP2-CaM BRET signal, single concentration [1] | effect on 3D spheroid growth [2] | K-Ras selective reduction of nanoclustering-BRET (K-Ras vs H-Ras) [3] | time-dependent change of K-RasG12V nanoclustering-BRET signal ([3]; 2-h treatment timeframe, OphA 10 μM) | Kd [4] [nM] | multipolar phenotype (multiple mCherry-CaM-positive centrosomes) [5]
1 | CC(=O)O[C@@]12C[C@@H](C)[C@@]3(O)[C@@H](C=C(CO)C[C@]4(O)C(=O)C(C)=C[C@@H]34)[C@@H]1C2(C)C [prostratin] | did not have an effect | almost no effect on cell growth | 1.5 fold |  |  | 
2 | CCCS(=O)(=O)Nc1ccc(F)c(C(=O)c2c[nH]c3ncc(-c4ccc(Cl)cc4)cc23)c1F [vemurafenib] |  | selectively and potently abolished the growth |  |  |  | 
3 | CC[C@H](C)C(=O)O[C@H]1CCC=C2C=C[C@H](C)[C@H](CC[C@@H]3C[C@@H](O)CC(=O)O3)[C@H]21 [mevastatin] |  |  | fairly indiscriminately | did not cause any reduction in the BRET signal |  | 
4 | Clc1ccc(C(c2ccc(Cl)cc2)n2cc[n+](CC(OCc3ccc(Cl)cc3Cl)c3ccc(Cl)cc3Cl)c2)cc1 (stereo not shown) [calmidazolium] | significantly reduced the BRET signal |  | 1.5 fold |  | 13.5 | increased fraction of multipolar cells
